# Data taken from PMC4502315, “High Potency of a Novel Resveratrol Derivative, 3,3′,4,4′-Tetrahydroxy-trans-stilbene, against Ovarian Cancer Is Associated with an Oxidative Stress-Mediated Imbalance between DNA Damage Accumulation and Repair” (Oxidative Medicine and Cellular Longevity, 2015).
# How the values were obtained:
# [1] = test system: HPMCs; test: MTT viability assay, HPMCs; format: cell-based, human; settings: 24 h; for IC50: Homo sapiens, CalcuSyn; for concentration up to which viability was maintained: cytotoxicity tests (MTT and LDH release)
# Method: (§1) Cell viability was assessed with the MTT test and with lactate dehydrogenase (LDH) release assay. As per the MTT method, normal and cancer cells were seeded into 96-well plates at high density and allowed to attach overnight. Then they were incubated in a medium containing 1.25 mg/mL of the MTT salt [3-(4,5-dimethylthiazol-2-yl)-2,5-diphenyltetrazolium bromide] for 24 h at 37°C. The generated formazan was solubilized with 20% sodium dodecyl sulphate and 50% N,N-dimethylformamide. Absorbance of the converted dye was recorded at 595 nm with a reference wavelength of 690 nm.
# (§2) In order to examine the effect of 3,3′,4,4′-THS on the viability of ovarian cancer cells and to compare its activity with RVT, subconfluent cultures of A2780, OVCAR-3, and SKOV-3 cells were subjected to a wide range of stilbene concentrations (0–500 μM) for 24 h; then MTT and LDH release assays were performed.
# [2] = test system: A2780 cells; test: Cell proliferation (CFDA SE), A2780; format: cell-based, human; settings: low-density cultures, 24 h, 10, 50, 100 μM tested
# Method: Cell proliferative potential was determined using Cell Proliferation Kit I (PromoKine, Heidelberg, Germany) according to the manufacturer's instructions. In brief, cells were probed for 15 min with 5-(and 6)-carboxyfluorescein diacetate, a succinimidyl ester (CFDA SE; 2 μM) which diffuses into cells, covalently binds to proteins, and becomes fluorescent upon its hydrolysis by intracellular esterases. The fluorescence emitted by the cells (the dye is inherited by the daughter cells through successive divisions) was recorded using a Victor2 spectrofluorometer (Perkin-Elmer, Turku, Finland) with excitation at 435 nm and emission at 535 nm.
# [3] = test system: caspase-8; test: Caspase-8 activity in ovarian cancer cell lysates; format: cell-based, human; settings: ovarian cancer cells (A2780, OVCAR-3, SKOV-3); 24 h
# Method: (§3) Identification of apoptosis was based on the presence of DNA condensation in cells stained with a fluorescent dye, Hoechst 33258 (Molecular Probes, Eugene, OR). Cells were grown on Lab-Tek Chamber Slides (Nunc, Roskilde, Denmark), fixed with 4% formaldehyde for 10 min and washed twice with PBS. Then the cells were incubated with Hoechst 33258 (0.1 μg/mL) for 5 min in the dark. After washing with PBS, stained nuclei were observed and counted under a Zeiss Axio Observer D1 fluorescence microscope (Carl Zeiss, Jena, Germany). The activity of caspases 3, 8, and 9 was quantified in the cell lysates using specific colorimetric kits (Abcam, Cambridge, UK) according to the manufacturer's instructions.
# [4] = test system: HPMCs; test: Oxidative DNA damage (8-OH-dG immunoassay), HPMCs; format: cell-based, human; settings: 24 h, percentage of control cells
# Method: (§4) Oxidative DNA damage was assessed by measuring the 8-OH-dG concentration with a competitive immunoassay (Cell Biolabs Inc.), as per manufacturer's instructions. The efficiency of 8-OH-dG repair was estimated after cell recovery for 24 h in standard growth medium. In order to examine the activity of DNA glycosylase I, reverse transcription PCR was performed. RNA extraction was carried out using the RNA Bee (Tel-Test, Friendswood, Texas, USA) and purified according to the manufacturer's protocol. One microgram of RNA was reverse transcribed into cDNA with random hexamer primers, and cDNA was subjected to PCR. The profile of the replication cycles was denaturation at 94°C for 50 s, annealing at 58°C for 50 s, and polymerization at 72°C for 1 min. In each reaction, the expression of glyceraldehyde-3-phosphate dehydrogenase (GAPDH) served as the internal control. The primers used for PCR were as follows: hOGG1 forward, 5′-[…]-3′; hOGG1 reverse, 5′-TAGCCCGCCCTGTTCTTC-3′ designed to amplify a 551-bp region; GAPDH forward, 5′-CCATGGAGAAGGCTGGGG-3′; and GAPDH reverse 5′-[…]-3′ designed to amplify a 194-bp region (total number of cycles: 28). The PCR products were separated on 3% agarose gels stained with ethidium bromide and then visualized.
# [5] = test system: superoxide dismutase (SOD); test: SOD activity in cell lysates, SKOV-3; format: cell-based, human; settings: 24 h, 10, 50, 100 μM tested
# Method: Total activity of superoxide dismutase (SOD) was measured in cell lysates with a commercially available kit (R&D Systems Europe, Abingdon, UK), while the activity of catalase (CAT) was estimated by using the OxiSelect Catalase Activity Assay Kit (Cell Biolabs Inc., San Diego, CA, USA). Both assays were performed according to the manufacturer's instructions.
# [6] = test system: OVCAR-3 cells; test: SA-β-Gal activity (senescence), OVCAR-3; format: cell-based, human; settings: 24 h, 10, 50, 100 μM tested
# Method: (§5) The activity of SA-β-Gal in the cell extracts was quantified by measuring the rate of conversion of 4-methylumbelliferyl-β-D-galactopyranoside to 4-methylumbelliferone, as described in [19]. In order to visualize expression of the enzyme in the cancer cell cytoplasm, cytochemical staining for SA-β-Gal was performed according to Dimri et al..
# [7] = test system: OVCAR-3; test: MTT viability assay, OVCAR-3; format: cell-based; settings: Homo sapiens, 24 h; for IC50: CalcuSyn
# Method: as §1, §2
# [8] = test system: p38 MAPK; test: p38 MAPK activation (FACE ELISA), A2780; format: cell-based, human; settings: 24 h, 10, 50, 100 μM tested
# Method: Activation of p38 MAPK was examined using the Fast Activated Cell-Based ELISA (FACE) p38 kit (Active Motif) according to the manufacturer's instructions. In brief, cells were fixed with 4% formaldehyde and incubated with a primary antibody that recognizes either phosphorylated p38 or total p38 overnight at 4°C. Then the cells were washed and incubated with a secondary HRP-conjugated antibody for 1 h at room temperature. The color reaction that developed was read using a spectrofluorometer at 450 nm wavelength.
# The results were expressed as a ratio of phosphorylated to total p38 activity.
# [9] = test system: caspase-9; test: Caspase-9 activity in ovarian cancer cell lysates; format: cell-based, human; settings: ovarian cancer cells (A2780, OVCAR-3, SKOV-3); 24 h
# Method: as §3
# [10] = test system: SKOV-3 cells; test: SA-β-Gal activity (senescence), SKOV-3; format: cell-based, human; settings: 24 h, 10, 50, 100 μM tested
# Method: as §5
# [11] = MTT viability assay, HPMCs; format: cell-based, human; settings: human, percentage of control cells
# Method: as §1, §2
# [12] = LDH release assay, HPMCs; format: cell-based, human; settings: human, percentage of control cells
# [13] = test system: DNA glycosylase I (hOgg1); test: DNA glycosylase I (hOgg1) mRNA expression (RT-PCR), ovarian cancer cells; format: cell-based, human; settings: all three cancer cell lines; after preincubation with stilbene, 24-h recovery
# Method: as §4
# [14] = LDH release assay, HOSE cells; format: cell-based, human; settings: human, percentage of control cells
# [15] = MTT viability assay, HOSE cells; format: cell-based, human; settings: human, percentage of control cells
# Method: as §1, §2
Structure (SMILES),IC50 [1],concentration up to which viability was maintained [1],"proliferation, effect in words [2]","caspase-8 activation, effect in words [3]",8-OH-dG ([4]; 10 μM),8-OH-dG ([4]; 50 μM),8-OH-dG ([4]; 100 μM),"SOD activity, effect in words [5]","SA-β-Gal activity (senescence), effect in words [6]",IC50 [7],"p38 MAPK activity (phosphorylated/total), effect in words [8]","caspase-9 activity, effect in words [9]","SA-β-Gal activity (senescence), effect in words [10]",further results
"Oc1ccc(/C=C/c2cc(O)cc(O)c2)cc1 [RVT, 3,4′,5-trihydroxy-trans-stilbene, reference compound]",465 µM,up to 300 μM,effectively reduced the expandability,no effect,103 ± 3%,103 ± 2%,102 ± 5%,failed to affect SOD activity,cellular senescence was elicited,480 µM,increased the activity of p38 MAPK at 100 μM,"activated caspases 9 and 3, and this activity was evident at 50 and 100 μM",cellular senescence was elicited,–
"Oc1ccc(/C=C/c2ccc(O)c(O)c2)cc1O [3,3′,4,4′-THS, 3,3′,4,4′-tetrahydroxy-trans-stilbene]",496 µM,up to 300 μM,evident at as low a concentration as 10 μM,lack of activation of caspase-8,91 ± 2^∗# %,88 ± 3^∗# %,76 ± 3^∗# %,downregulated it at 50 and 100 μM,significantly greater than those of RVT at each concentration,50 µM,elicited its stimulatory activity at 50 and 100 μM,increased the activity of the same caspases as RVT did,significantly greater than those of RVT at each concentration,"viability at 24 h, 10 µM ([11]; 10 μM): 108 ± 14%; viability at 24 h, 50 µM ([11]; 50 μM): 100 ± 4%; viability at 24 h, 100 µM ([11]; 100 μM): 102 ± 2%; viability at 24 h, 10 µM ([12]; 10 μM): 101 ± 2%; viability at 24 h, 50 µM ([12]; 50 μM): 100 ± 4%; viability at 24 h, 100 µM ([12]; 100 μM): 102 ± 2%; hOgg1 mRNA expression during recovery, in words [13]: remarkably lower as compared to values characterizing cells subjected to RVT; viability at 24 h, 10 µM ([14]; 10 μM): 101 ± 2%; viability at 24 h, 50 µM ([14]; 50 μM): 100 ± 4%; viability at 24 h, 100 µM ([14]; 100 μM): 102 ± 2%; viability at 24 h, 10 µM ([15]; 10 μM): 105 ± 2%; viability at 24 h, 50 µM ([15]; 50 μM): 100 ± 4%; viability at 24 h, 100 µM ([15]; 100 μM): 107 ± 2%; viability at 10 µM ([7]; 10 μM, percentage of control cells): 75 ± 3%; viability at 50 µM ([7]; 50 μM, percentage of control cells): 50 ± 3%; viability at 100 µM ([7]; 100 μM, percentage of control cells): 48 ± 3%"
